Entries after “also recorded” stand apart in the source; their conditions may differ.
Assays:
[1] = system: neuropathic pain; assay: model of neuropathic pain (Bennett model); type: in vivo
Text: Evidence of the incorrect conclusion reached by Chenard et al., 1991, supra, is provided by experiments conducted in a Bennett model (Bennett et al, 1988, Pain 33(1):87-107). The results are shown in the accompanying drawing.

[2] = system: thermal stimulation of the lesioned paw; assay: effect of agents on thermal stimulation of the lesioned paw; type: in vivo
[3] = system: alpha1-adrenoceptor; assay: hypotension liability (alpha1-adrenoceptor antagonism)
[4] = system: alpha-1 adrenergic receptor; conditions: cited from earlier work
[5] = target: NR2B-containing NMDA receptors (Homo sapiens, UniProt Q05586+Q13224); conditions: voltage-independent and non-competitive manner; cited from earlier work
Sequence of NR2B-containing NMDA receptors (Q13224 27-1484, other chains not shown): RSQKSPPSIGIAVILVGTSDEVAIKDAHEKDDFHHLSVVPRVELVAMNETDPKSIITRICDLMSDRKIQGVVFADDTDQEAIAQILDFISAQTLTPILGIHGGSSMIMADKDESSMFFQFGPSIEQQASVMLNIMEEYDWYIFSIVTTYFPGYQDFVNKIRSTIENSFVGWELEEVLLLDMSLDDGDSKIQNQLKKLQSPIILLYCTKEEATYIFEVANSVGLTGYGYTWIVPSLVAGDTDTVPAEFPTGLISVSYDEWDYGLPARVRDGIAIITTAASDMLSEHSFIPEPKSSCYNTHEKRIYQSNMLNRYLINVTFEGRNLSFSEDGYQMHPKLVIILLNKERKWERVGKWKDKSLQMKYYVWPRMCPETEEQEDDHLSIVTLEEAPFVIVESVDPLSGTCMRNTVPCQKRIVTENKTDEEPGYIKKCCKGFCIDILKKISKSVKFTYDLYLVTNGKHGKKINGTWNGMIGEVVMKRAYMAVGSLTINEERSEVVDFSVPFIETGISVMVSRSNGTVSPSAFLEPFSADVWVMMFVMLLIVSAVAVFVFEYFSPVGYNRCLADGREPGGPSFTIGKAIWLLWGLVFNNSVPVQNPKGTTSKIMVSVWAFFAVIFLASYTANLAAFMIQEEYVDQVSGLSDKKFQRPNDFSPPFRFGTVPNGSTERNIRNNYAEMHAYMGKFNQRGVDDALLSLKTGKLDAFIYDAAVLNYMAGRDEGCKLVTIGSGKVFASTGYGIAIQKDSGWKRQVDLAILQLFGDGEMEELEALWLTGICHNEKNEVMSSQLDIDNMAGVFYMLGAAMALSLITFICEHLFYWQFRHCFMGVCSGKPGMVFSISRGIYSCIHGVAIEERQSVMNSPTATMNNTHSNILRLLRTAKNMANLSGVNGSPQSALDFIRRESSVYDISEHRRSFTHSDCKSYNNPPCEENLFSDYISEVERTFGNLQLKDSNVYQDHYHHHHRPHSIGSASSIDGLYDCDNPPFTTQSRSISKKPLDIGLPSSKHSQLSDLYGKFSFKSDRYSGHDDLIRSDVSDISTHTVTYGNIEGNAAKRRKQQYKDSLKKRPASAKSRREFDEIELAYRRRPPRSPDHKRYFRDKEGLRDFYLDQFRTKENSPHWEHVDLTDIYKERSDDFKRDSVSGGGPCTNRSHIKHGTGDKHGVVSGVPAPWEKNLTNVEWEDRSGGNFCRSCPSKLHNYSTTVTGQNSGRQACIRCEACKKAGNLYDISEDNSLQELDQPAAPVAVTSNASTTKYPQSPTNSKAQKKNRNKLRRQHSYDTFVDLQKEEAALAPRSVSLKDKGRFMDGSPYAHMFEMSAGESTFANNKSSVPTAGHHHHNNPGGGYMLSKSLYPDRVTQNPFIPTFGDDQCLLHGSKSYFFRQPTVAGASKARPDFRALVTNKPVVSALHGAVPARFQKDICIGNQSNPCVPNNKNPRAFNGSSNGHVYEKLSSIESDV

[6] = system: acute and chronic pain; conditions: in vivo; cited from earlier work

| SMILES | efficacy versus the other enantiomers in a model of neuropathic pain [1] | effectiveness on thermal stimulation of the lesioned paw, comparison of enantiomers ([2]; 3 mg/kg ip) | hypotension liability (alpha1-adrenoceptor antagonism) versus the other enantiomers [3] | effectiveness on thermal stimulation of the lesioned paw relative to comparators ([2]; ifenprodil 3, 10 and 30 mg/kg ip, gabapentin 30 mg/kg ip, morphine 8 mg/kg ip) | alpha-1 adrenergic receptor binding [4] | block of NR2B-containing NMDA receptors [5] | anti-nociceptive activity in animal models of acute and chronic pain [6] |
| --- | --- | --- | --- | --- | --- | --- | --- |
| CC(C(O)c1ccc(O)cc1)N1CCC(Cc2ccccc2)CC1 (single isomer, unassigned; (-)) [(−)-threo-ifenprodil] | does not produce a significant increase in efficacy over the other enantiomers | the most effective enantiomer | lower hypotension liability | – | – | – | – |
| CC(C(O)c1ccc(O)cc1)N1CCC(Cc2ccccc2)CC1 (stereo not shown) [Ifenprodil, 2-(4-benzylpiperidino)-1-(4-hydroxyphenyl)-1-propanol] | – | – | – | more effective than gabapentin; also recorded: almost as effective as morphine | potent alpha-1 adrenergic receptor binding properties | selectively blocks NR2B-containing NMDA receptors | exhibits anti-nociceptive activity |
